Article PMC9402538, “Rational design of a sensitivity-enhanced tracer for discovering efficient APC–Asef inhibitors” (Nature Communications, 2022)
pKd: −log10 of the molar value. Several values for one entry are separate records, joined by “and”; a condition that tells them apart may be missing. Identical values can stand only once. Entries after “also recorded” stand apart in the source; their conditions may differ. Where a SMILES comes first, the peptide text is derived from it. The star is where a group is joined. Benzoyl(4-OMe) = COc1ccc(C(=O)*)cc1

Columns and labels:
[1] = tested on: SW480 cells; assay: Transwell migration assay, SW480; format: cell-based
Experimental: Cells were serum-starved for 8 h and then digested and resuspended in serum-free medium. […] The lower chambers were filled with 600 μL of complete medium. […] After 48 h, the Transwell inserts were washed twice with 1× PBS. The cells in the upper chambers of the Transwell inserts were gently removed using cotton-tipped applicators. The cells on the lower surface of the membrane were fixed with methanol and then stained with crystal violet for 10 min. The Transwell inserts were washed with distilled water to remove the excess crystal violet and then dried. The stained cells from different areas were imaged using light microscopy and counted using ImageJ (NIH).

[2] = target: T1, APC W593A (Homo sapiens, UniProt P25054, W593A); assay: ITC assay, APC W593A mutant; format: binding
T1 sequence (P25054 303-739 W593A): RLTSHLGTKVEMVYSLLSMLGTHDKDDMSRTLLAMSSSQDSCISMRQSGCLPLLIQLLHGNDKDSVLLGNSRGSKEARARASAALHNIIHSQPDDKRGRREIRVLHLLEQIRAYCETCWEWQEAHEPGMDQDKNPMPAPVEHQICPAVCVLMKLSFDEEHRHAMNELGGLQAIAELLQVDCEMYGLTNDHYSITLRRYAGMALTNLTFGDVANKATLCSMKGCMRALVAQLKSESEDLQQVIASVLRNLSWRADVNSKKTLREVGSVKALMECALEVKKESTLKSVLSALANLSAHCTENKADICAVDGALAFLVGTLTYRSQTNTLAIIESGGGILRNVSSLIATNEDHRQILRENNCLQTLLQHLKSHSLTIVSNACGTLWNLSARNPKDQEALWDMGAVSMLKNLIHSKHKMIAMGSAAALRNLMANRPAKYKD
Experimental: ITC experiments were performed using a MicroCal ITC200 calorimeter (Malvern Panalytical Ltd.). APC protein and peptide inhibitors were diluted with buffer containing 50 mM HEPES pH 7.5, 300 mM NaCl and 1 mM EDTA. The cells were loaded with APC proteins at 10–20 μM. All injections were performed using an initial injection of 0.2 μL followed by 19 injections of 2 μL at 100–200 μM. All measurements were carried out at 30 °C. The data were analyzed using a single-site binding model within MicroCal ITC200 analysis software to generate the stoichiometry (N), enthalpy changes (ΔH), entropy changes (ΔS), and the association constant (K) of binding. The changes in free energy (ΔG) were calculated (ΔG = ΔH-TΔS).

[3] = tested on: SW480 cells; assay: xCELLigence RTCA-DP migration assay, SW480; format: cell-based; conditions: for Cell index: 50 μM
Experimental: Real-time cell migration was evaluated using the xCELLigence RTCA-DP system (Roche). Briefly, SW480 cells were serum-starved for 8 h, digested, and resuspended in serum-free medium. The wells in the upper chamber of CIM plate 16 were preequilibrated with 30 μL serum-free medium for 1 h and filled with 100 μL of 4 × 10^4 serum-starved SW480 cells per well. The wells in the lower chamber of CIM plate 16 were filled with complete medium. […] Cell index values were detected every 15 min throughout the procedure, and the data were collected and analyzed with RTCA software (version 2.3).

[4] = target: T2, APC–Asef PPI (HA–APC (303–876), FLAG–Asef (170–632)) (Homo sapiens, UniProt P25054); assay: Exogenous Co-IP of APC–Asef in drug-treated HEK293T cells; conditions: 24 h, TAT + linker and MAI-516 50 μM, MAIT-516 25 and 50 μM
T2 sequence (P25054 303-876): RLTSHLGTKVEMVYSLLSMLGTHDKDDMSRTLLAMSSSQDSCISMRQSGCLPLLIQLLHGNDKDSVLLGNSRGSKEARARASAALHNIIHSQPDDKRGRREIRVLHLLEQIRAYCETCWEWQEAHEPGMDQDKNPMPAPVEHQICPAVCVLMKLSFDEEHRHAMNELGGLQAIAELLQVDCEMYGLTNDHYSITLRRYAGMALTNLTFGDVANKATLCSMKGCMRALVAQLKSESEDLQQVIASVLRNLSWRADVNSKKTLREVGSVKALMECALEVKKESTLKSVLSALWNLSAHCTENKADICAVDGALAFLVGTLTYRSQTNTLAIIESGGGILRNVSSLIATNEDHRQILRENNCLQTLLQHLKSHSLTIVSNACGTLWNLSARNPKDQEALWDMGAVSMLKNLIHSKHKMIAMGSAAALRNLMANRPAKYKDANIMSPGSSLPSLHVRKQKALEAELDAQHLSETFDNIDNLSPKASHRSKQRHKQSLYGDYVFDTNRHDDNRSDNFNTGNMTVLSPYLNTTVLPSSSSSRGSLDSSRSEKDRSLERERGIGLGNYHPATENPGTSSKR
Experimental: For direct western blot analysis, cells were harvested in NP-40 lysis buffer (1% NP-40, 50 mM Tris-HCl at pH 7.5, 150 mM NaCl, 1 mM PMSF, 25 mM NaF, 1 mM Na3VO4) supplemented with cOmplete™ Protease Inhibitor Cocktail (Roche). […] Forty-eight hours after transfection, the cells were washed twice with cold PBS and lysed in NP-40 lysis buffer for 1 h on ice. […] The next day, the samples were centrifuged (7,000 × g for 30 s at 4 °C), and the supernatant was discarded. The beads were washed four times with NP-40 lysis buffer, and the bound proteins were eluted in SDS sample buffer for immunoblotting analysis and detected with anti-FLAG (Sigma; F1804, 1:1,000), anti-HA antibody (Sigma; H9658, 1:20,000) and goat anti-mouse IgG secondary antibody (Signalway antibody; L3032, 1:50,000). […] Twenty-four hours after transfection, peptides and peptidomimetics were added to the culture medium for 24 h. […] For endogenous immunoprecipitation, SW480, DLD1, and RKO cells were seeded in 10-cm cell culture dishes.

[5] = tested on: SW480 cells; assay: Wound-healing migration assay, SW480; format: cell-based
Experimental: Cells were seeded in 12-well plates at a density of 4 × 10^5 cells per well and grown until 90% confluence in DMEM supplemented with 10% FBS. The monolayers were scratched with a sterile pipette tip (QSP; T104TLS-Q). The cells were washed with 1× PBS and then cultured in culture medium containing 1% FBS and peptides or peptidomimetics. The corresponding photos were captured at the time of scratching and after 24–72 h.

COc1ccc(C(=O)N[C@@H](C)C(=O)NCC(=O)N[C@@H](CCC(=O)O)C(=O)N[C@@H](CO)C(=O)N[C@@H](CC(C)C)C(=O)N[C@@H](Cc2ccc(O)cc2)C(=O)N[C@@H](CCC(=O)O)C(N)=O)cc1 [MAI-516] ({Benzoyl(4-OMe)}-AGESLYE-NH2)
Relative migration ability (single replicates) ([1]; FigS10e, relative to DMSO): 1.11 and 1.06 and 0.96
Relative migration ability, mean ([1]; FigS10e, relative to DMSO): 1.04
cell migration (transwell) ([1]; SW480, MAI-516 50 μM, 48 h): dose not inhibit the migration; also recorded: no apparent impact
reduction of binding affinity vs APC WT [2]: approximately 100 fold
-TΔS ([2]; 30 °C): 2.63 kcal/mol
L/P ratio ([2]; 30 °C): 0.92
ΔG ([2]; 30 °C): -8.87 kcal/mol
ΔH ([2]; 30 °C): -11.5 kcal/mol
pKd ([2]; ITC, 30 °C): 6.40
Cell index ([3]; Time 2.86 h): 0.0858 and 0.0963 and 0.0628 and 0.0638
Cell index ([3]; Time 3.11 h): 0.0938 and 0.1001 and 0.0718 and 0.0644
Cell index ([3]; Time 25.38 h): 0.4156 and 0.4495 and 0.4015 and 0.3302
Cell index ([3]; Time 25.63 h): 0.4241 and 0.453 and 0.4081 and 0.333
Cell index ([3]; Time 25.88 h): 0.4262 and 0.4606 and 0.4096 and 0.3376
Cell index ([3]; Time 26.13 h): 0.4312 and 0.4671 and 0.4174 and 0.3414
Cell index ([3]; Time 26.38 h): 0.4401 and 0.4711 and 0.4224 and 0.35
Cell index ([3]; Time 26.63 h): 0.4427 and 0.4808 and 0.4256 and 0.3526
Cell index ([3]; Time 26.88 h): 0.4494 and 0.4864 and 0.4295 and 0.3559
Cell index ([3]; Time 27.13 h): 0.4537 and 0.4902 and 0.438 and 0.3614
Cell index ([3]; Time 27.38 h): 0.4561 and 0.4966 and 0.4408 and 0.3637
Cell index ([3]; Time 27.63 h): 0.459 and 0.5021 and 0.4433 and 0.3665
Cell index ([3]; Time 27.88 h): 0.4663 and 0.508 and 0.4508 and 0.3739
Cell index ([3]; Time 28.13 h): 0.4709 and 0.5146 and 0.4572 and 0.3773
Cell index ([3]; Time 28.38 h): 0.4763 and 0.5221 and 0.4622 and 0.3808
Cell index ([3]; Time 28.63 h): 0.4818 and 0.5253 and 0.4661 and 0.3892
Cell index ([3]; Time 28.88 h): 0.484 and 0.5373 and 0.4696 and 0.3897
Cell index ([3]; Time 29.13 h): 0.4908 and 0.5435 and 0.4752 and 0.3937
Cell index ([3]; Time 29.38 h): 0.4994 and 0.5497 and 0.4817 and 0.3996
Cell index ([3]; Time 29.63 h): 0.5038 and 0.5558 and 0.4857 and 0.4052
Cell index ([3]; Time 29.88 h): 0.5108 and 0.5614 and 0.4912 and 0.4104
Cell index ([3]; Time 30.13 h): 0.5142 and 0.5705 and 0.496 and 0.4144
Cell index ([3]; Time 30.38 h): 0.5237 and 0.5775 and 0.5022 and 0.4227
Cell index ([3]; Time 30.63 h): 0.5252 and 0.5853 and 0.505 and 0.4265
Cell index ([3]; Time 30.88 h): 0.5376 and 0.5896 and 0.5138 and 0.4332
cell migration (RTCA) ([3]; SW480, MAI-516): dose not inhibit the migration; also recorded: no apparent impact
effect on APC–Asef PPI (Co-IP) [4]: no effect
Relative migration ability (single replicates) ([5]; FigS10c, relative to DMSO): 0.86 and 1.12 and 0.84
Relative migration ability, mean ([5]; FigS10c, relative to DMSO): 0.94
cell migration (wound healing) ([5]; SW480, MAI-516 50 μM): dose not inhibit the migration; also recorded: no apparent impact
